{"source": "patent US7998754B2", "about": "“In vitro method for the simultaneous detection and identification of antibiotics of different classes and corresponding diagnostic kit” (Unisensor S.A., priority 2005, dated 2011)", "key": {"β-lactame receptor (RSA) [1]": {"biological_target": "T1, β-lactame receptor (RSA) (Staphylococcus aureus, UniProt P18357)", "T1 construct": "made in house", "T1 sequence (P18357 331-585 limits assumed)": "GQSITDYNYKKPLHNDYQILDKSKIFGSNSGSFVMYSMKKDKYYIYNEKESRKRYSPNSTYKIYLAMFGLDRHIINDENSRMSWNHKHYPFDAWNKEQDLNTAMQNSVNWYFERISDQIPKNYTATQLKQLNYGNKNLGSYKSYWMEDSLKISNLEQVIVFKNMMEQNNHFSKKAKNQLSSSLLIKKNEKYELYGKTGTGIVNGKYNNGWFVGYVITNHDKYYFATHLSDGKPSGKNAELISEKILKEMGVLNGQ", "type": "binding", "conditions": "milk; for Ratio test/control: at the detection limit concentration; for Concentration detection limit: β-lactames, three-parameter test", "method": "This mixture is prepared either as required or lyophilisated for 20 hours. The Recovery System\nThe other capture zones are identical but differently positioned, as in FIG. 2.\nA single control zone serves as a reference for the three markers.\n(§1) 200 μL of cold milk are incubated at 50° C. in the presence of 50 μl of the reagents prepared and/or lyophilisated as above. After 3 minutes of incubation at 50° C., the above-described recovery element is immersed in the solution. The final interpretation is made after 3 minutes of incubation by means of an optical dipstick reader available at Matest (Germany).\nAs a general rule, if the ratio of the intensities of the concerned test signal relative to the control signal is less than or equal to 1, the sample is considered as positive for the parameter (compound) concerned."}, "[2]": {"conditions": "cited from earlier work; for MRL/EU: maximum residue level, European Union"}, "β-lactame receptor (RSA) [3]": {"biological_target": "T1, β-lactame receptor (RSA)", "type": "binding", "conditions": "milk; for Intensity ratio of parameter/control zone: at the detection limit concentration; for Detection limit: Concentration: β-lactames, positive when ratio test/control <= 1", "description": "(§2) For the detection of β-lactames, the reactive mixture comprises the specific receptor for recognising β-lactames, its specific antibody and a preparation of protein A conjugated with colloidal gold. For the detection of tetracyclines, the reactive mixture comprises the receptor of the tetracyclines, its specific antibody, a specific fragment of DNA conjugated with biotin and a preparation of protein A conjugated with colloidal gold.\n(§3) The β-lactame receptor is obtained by the method described by Golemi-Kotra et al.^(6) The unpurified receptor is filtered on a Millex HV membrane (Millipore, Inc., USA) before it is stored at 4° C. in the presence of glycerol at 50% v/v.\n(§4) This mixture is either prepared as required or lyophilisated for 20 hours. The Recovery System\n(§5) The recovery system comprises a nitrocellulose membrane on which are fixed, at distinct points, the elements capable of forming a complex with the recognition molecules of the reactive mixture. These elements are: • for the “beta” signal (for β-lactame), an antibiotic, preferably of penicillin or cephalosporine type, fixed to a molecule with no particular reactivity to protein A, biotin or avidine. […] An egg-white avidine is preferably used.\n(§6) In the case of a detection of two parameters, the preparations of β-lactoglobulin and avidine will be deposited on each side of the control line. For example, the β-lactoglobulin conjugate already prepared will be deposited below the control line and the neutralized avidine solution will be deposited above the control line (FIG. 1).\nas §1, with “(Germany);” for “(Germany).”\n(§7) As a general rule, when the ratio of the intensities of the concerned test signal relative to the control signal is less than or equal to 1, the sample is considered positive for the parameter (compound) concerned."}, "[4]": {"tested_on": "tetracycline receptor (TetR)", "assay": "Example 1 dipstick test in milk, \"tetra\" capture zone (format 1)", "type": "binding, E. Coli", "description": "In addition, the recovery system is a specific and biotinylated fragment of DNA that can be fixed on a molecule of avidine attached to a nitrocellulose membrane. […] In this case, the fragment of DNA forms a complex with the receptor and a signal generated by the gold particles attached to the receptor appears.\nas §2, §3\nThe DNA fragment is obtained at Eurogentec SA, Belgium according to the sequence and preparation described in patent application WO-A-03/048770. In this precise case, the DNA fragment is not fixed to a capture point on a nitrocellulose membrane but it is directly incorporated into the reactive mixture. This fragment will be recovered in testo by means of its biotinylated end on avidine fixed to a capture point (see below).\nas §4, §5, §6\nas §1, with “(Germany);” for “(Germany).”\nas §7"}}, "note": "Read-outs that look alike come from different tables or passages of the source."}
{"molecule": "CC1(C)S[C@@H]2[C@H](NC(=O)[C@H](N)c3ccc(O)cc3)C(=O)N2[C@H]1C(=O)O", "note": "[Amoxicillin]", "values": [{"measurement": "Ratio test/control", "setting": "β-lactame receptor (RSA) [1]", "value": 0.4}, {"measurement": "Concentration detection limit", "setting": "β-lactame receptor (RSA) [1]", "value": 4, "unit": "ppb"}, {"measurement": "Safe level/US", "setting": "[2]", "value": 10, "unit": "ppb"}, {"measurement": "MRL/EU", "setting": "[2]", "value": 4, "unit": "ppb"}, {"measurement": "Intensity ratio of parameter/control zone", "setting": "β-lactame receptor (RSA) [3]", "value": 0.4}, {"measurement": "Detection limit: Concentration", "setting": "β-lactame receptor (RSA) [3]", "value": 4, "unit": "ppb"}]}
{"molecule": "CC1(C)S[C@@H]2[C@H](NC(=O)[C@H](N)c3ccccc3)C(=O)N2[C@H]1C(=O)O", "note": "[Ampicillin]", "values": [{"measurement": "Intensity: zone T", "setting": "[4]; Ampi 1 ppb", "value": 380}, {"measurement": "Intensity: zone T", "setting": "[4]; Ampi 2 ppb", "value": 405}, {"measurement": "Intensity: zone T", "setting": "[4]; Ampi 3 ppb", "value": 408}, {"measurement": "Intensity: zone T", "setting": "[4]; Ampi 4 ppb", "value": 386}, {"measurement": "Intensity: zone T", "setting": "[4]; Ampi 5 ppb", "value": 397}, {"measurement": "Intensity: zone T", "setting": "[4]; Ampi 10 ppb", "value": 414}, {"measurement": "Concentration detection limit", "setting": "β-lactame receptor (RSA) [1]", "value": 4, "unit": "ppb"}, {"measurement": "Intensity: zone B", "setting": "β-lactame receptor (RSA) [3]; Ampi 1 ppb", "value": 380}, {"measurement": "Intensity: zone B", "setting": "β-lactame receptor (RSA) [3]; Ampi 2 ppb", "value": 250}, {"measurement": "Intensity: zone B", "setting": "β-lactame receptor (RSA) [3]; Ampi 3 ppb", "value": 155}, {"measurement": "Intensity: zone B", "setting": "β-lactame receptor (RSA) [3]; Ampi 4 ppb + Tetra 75 ppb together", "value": 122}, {"measurement": "Intensity: zone B", "setting": "β-lactame receptor (RSA) [3]; Ampi 4 ppb", "value": 105}, {"measurement": "Intensity: zone B", "setting": "β-lactame receptor (RSA) [3]; Ampi 5 ppb", "value": 55}, {"measurement": "Intensity: zone B", "setting": "β-lactame receptor (RSA) [3]; Ampi 10 ppb", "value": 25}, {"measurement": "Detection limit: Concentration", "setting": "β-lactame receptor (RSA) [3]", "value": 4, "unit": "ppb"}]}
{"molecule": "CC1(C)S[C@@H]2[C@H](NC(=O)Cc3ccccc3)C(=O)N2[C@H]1C(=O)O", "note": "[Benzylpenicillin]", "values": [{"measurement": "Concentration detection limit", "setting": "β-lactame receptor (RSA) [1]", "value": 2, "unit": "ppb"}, {"measurement": "Detection limit: Concentration", "setting": "β-lactame receptor (RSA) [3]", "value": 2, "unit": "ppb"}]}
{"molecule": "CO/N=C(\\C(=O)N[C@@H]1C(=O)N2C(C(=O)O)=C(CSC(=O)c3ccco3)CS[C@H]12)c1csc(N)n1", "note": "[Ceftiofur]", "values": [{"measurement": "Ratio test/control", "setting": "β-lactame receptor (RSA) [1]", "value": 0.5}, {"measurement": "Concentration detection limit", "setting": "β-lactame receptor (RSA) [1]", "value": 10, "unit": "ppb"}, {"measurement": "Safe level/US", "setting": "[2]", "value": 50, "unit": "ppb"}, {"measurement": "MRL/EU", "setting": "[2]", "value": 100, "unit": "ppb"}, {"measurement": "Intensity ratio of parameter/control zone", "setting": "β-lactame receptor (RSA) [3]", "value": 0.5}, {"measurement": "Detection limit: Concentration", "setting": "β-lactame receptor (RSA) [3]", "value": 10, "unit": "ppb"}]}
{"molecule": "CC(=O)OCC1=C(C(=O)O)N2C(=O)[C@@H](NC(=O)CSc3ccncc3)[C@H]2SC1", "note": "[Cephapyrin]", "values": [{"measurement": "Ratio test/control", "setting": "β-lactame receptor (RSA) [1]", "value": 0.3}, {"measurement": "Concentration detection limit", "setting": "β-lactame receptor (RSA) [1]", "value": 8, "unit": "ppb"}, {"measurement": "Safe level/US", "setting": "[2]", "value": 20, "unit": "ppb"}, {"measurement": "MRL/EU", "setting": "[2]", "value": 60, "unit": "ppb"}, {"measurement": "Intensity ratio of parameter/control zone", "setting": "β-lactame receptor (RSA) [3]", "value": 0.3}, {"measurement": "Detection limit: Concentration", "setting": "β-lactame receptor (RSA) [3]", "value": 8, "unit": "ppb"}]}
{"molecule": "CN(C)[C@@H]1C(O)=C(C(N)=O)C(=O)[C@@]2(O)C(O)=C3C(=O)c4c(O)ccc(Cl)c4[C@@](C)(O)[C@H]3C[C@@H]12", "note": "[Chlortetracycline]", "values": [{"measurement": "Safe level/US", "setting": "[2]", "value": 300, "unit": "ppb"}, {"measurement": "MRL/EU", "setting": "[2]", "value": 100, "unit": "ppb"}]}
{"molecule": "C[C@H]1c2cccc(O)c2C(=O)C2=C(O)[C@]3(O)C(=O)C(C(N)=O)=C(O)[C@@H](N(C)C)[C@@H]3[C@@H](O)[C@@H]21", "note": "[Doxycycline]", "values": [{"measurement": "Safe level/US", "setting": "[2]", "value": 300, "unit": "ppb"}, {"measurement": "MRL/EU", "setting": "[2]", "value": 100, "unit": "ppb"}]}
{"molecule": "CN(C)[C@@H]1C(O)=C(C(N)=O)C(=O)[C@@]2(O)C(O)=C3C(=O)c4c(O)cccc4[C@@](C)(O)[C@H]3[C@H](O)[C@@H]12", "note": "[Oxytetracycline]", "values": [{"measurement": "Safe level/US", "setting": "[2]", "value": 300, "unit": "ppb"}, {"measurement": "MRL/EU", "setting": "[2]", "value": 100, "unit": "ppb"}]}
{"molecule": "CN(C)[C@@H]1C(O)=C(C(N)=O)C(=O)[C@@]2(O)C(O)=C3C(=O)c4c(O)cccc4[C@@](C)(O)[C@H]3C[C@@H]12", "note": "[Tetracycline]", "values": [{"measurement": "Safe level/US", "setting": "[2]", "value": 300, "unit": "ppb"}, {"measurement": "MRL/EU", "setting": "[2]", "value": 100, "unit": "ppb"}]}
{"molecule": "Cloxacycline", "values": [{"measurement": "Ratio test/control", "setting": "β-lactame receptor (RSA) [1]", "value": 0.5}, {"measurement": "Concentration detection limit", "setting": "β-lactame receptor (RSA) [1]", "value": 10, "unit": "ppb"}, {"measurement": "Safe level/US", "setting": "[2]", "value": 10, "unit": "ppb"}, {"measurement": "MRL/EU", "setting": "[2]", "value": 30, "unit": "ppb"}, {"measurement": "Intensity ratio of parameter/control zone", "setting": "β-lactame receptor (RSA) [3]", "value": 0.5}, {"measurement": "Detection limit: Concentration", "setting": "β-lactame receptor (RSA) [3]", "value": 10, "unit": "ppb"}]}
